In ChEMBL document CHEMBL1142806, “Synthesis and assay of isoquinoline derivatives as HIV-1 Tat-TAR interaction inhibitors” (Bioorg Med Chem Lett, 2005):

Legend:
[1] = Percent inhibition of SIV-induced syncytium in CEM174 cells; format: functional
[2] = Binding constant to TAR at 0.393e-4 M concentration
[3] = Effective concentration required to inhibit SIV induced syncytium in CEM174 cells; format: functional, cell-based
[4] = Binding constant to TAR at 1.107e-4 M concentration
[5] = Binding constant to TAR at 0.814e-4 M concentration
[6] = Binding constant to TAR at 0.357e-4 M concentration

K [2] | EC50 [3] | K [4] | K [5] | K [6] | Structure (SMILES) | Inhibition [1]
169000 | 3.92 µM |  |  |  | N=C(N)NCCCNC(=O)c1cc2ccccc2cn1.O=S(O)O | 60.7%
 | 8.74 µM | 15400 |  |  | NCCCNC(=O)c1cc2ccccc2cn1 | 58.7%
 | 12.9 µM |  | 33000 |  | NCCNC(=O)c1cc2ccccc2cn1 | 44.2%
 | 6.86 µM |  |  | 207000 | N=C(N)NCCNC(=O)c1cc2ccccc2cn1.O=S(O)O | 56.2%
